In ChEMBL document CHEMBL1148559, “Synthesis and monoamine transporter affinity of new 2beta-carbomethoxy-3beta-[aryl or heteroaryl]phenyltropanes” (Bioorg Med Chem Lett, 2006):

Experiments:
[1] = target: Sodium-dependent dopamine transporter (Rattus norvegicus, UniProt P23977); assay: Displacement of [3H]GBR-12935 from DAT in rat […]; assay type: tissue-based
[2] = target: Norepinephrine transporter (Rattus norvegicus, UniProt Q9WTR4); assay: Displacement of [3H]nisoxetine from NET in rat […]; assay type: tissue-based
[3] = Selectivity for SERT over DAT; assay type: protein assay; conditions: Rattus norvegicus
[4] = target: Sodium-dependent serotonin transporter (Rattus norvegicus, UniProt P31652); assay: Displacement of [3H]paroxetine from SERT in rat frontoparietal cerebral cortex; assay type: tissue-based
[5] = target: Monoamine transporters; Norepinephrine & serotonin (Rattus norvegicus) (UniProt P31652+Q9WTR4); assay: Selectivity for SERT over NET; assay type: protein assay

Sequence of Norepinephrine transporter (Q9WTR4 whole entry): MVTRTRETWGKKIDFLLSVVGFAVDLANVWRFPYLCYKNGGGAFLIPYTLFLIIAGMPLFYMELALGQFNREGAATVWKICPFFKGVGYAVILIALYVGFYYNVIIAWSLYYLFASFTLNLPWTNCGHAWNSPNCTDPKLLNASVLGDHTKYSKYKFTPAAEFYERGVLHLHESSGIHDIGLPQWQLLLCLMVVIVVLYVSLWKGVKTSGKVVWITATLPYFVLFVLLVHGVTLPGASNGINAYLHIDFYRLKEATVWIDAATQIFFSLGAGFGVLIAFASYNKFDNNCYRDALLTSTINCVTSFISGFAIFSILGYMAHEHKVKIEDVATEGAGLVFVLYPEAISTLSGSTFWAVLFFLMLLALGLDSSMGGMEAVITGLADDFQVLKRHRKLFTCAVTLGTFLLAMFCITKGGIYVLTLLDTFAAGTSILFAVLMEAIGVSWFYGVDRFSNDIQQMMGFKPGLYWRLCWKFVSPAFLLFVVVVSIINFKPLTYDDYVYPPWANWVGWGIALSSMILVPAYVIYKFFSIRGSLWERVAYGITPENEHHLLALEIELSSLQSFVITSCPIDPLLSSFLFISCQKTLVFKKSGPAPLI
Sequence of Sodium-dependent dopamine transporter (P23977 whole entry): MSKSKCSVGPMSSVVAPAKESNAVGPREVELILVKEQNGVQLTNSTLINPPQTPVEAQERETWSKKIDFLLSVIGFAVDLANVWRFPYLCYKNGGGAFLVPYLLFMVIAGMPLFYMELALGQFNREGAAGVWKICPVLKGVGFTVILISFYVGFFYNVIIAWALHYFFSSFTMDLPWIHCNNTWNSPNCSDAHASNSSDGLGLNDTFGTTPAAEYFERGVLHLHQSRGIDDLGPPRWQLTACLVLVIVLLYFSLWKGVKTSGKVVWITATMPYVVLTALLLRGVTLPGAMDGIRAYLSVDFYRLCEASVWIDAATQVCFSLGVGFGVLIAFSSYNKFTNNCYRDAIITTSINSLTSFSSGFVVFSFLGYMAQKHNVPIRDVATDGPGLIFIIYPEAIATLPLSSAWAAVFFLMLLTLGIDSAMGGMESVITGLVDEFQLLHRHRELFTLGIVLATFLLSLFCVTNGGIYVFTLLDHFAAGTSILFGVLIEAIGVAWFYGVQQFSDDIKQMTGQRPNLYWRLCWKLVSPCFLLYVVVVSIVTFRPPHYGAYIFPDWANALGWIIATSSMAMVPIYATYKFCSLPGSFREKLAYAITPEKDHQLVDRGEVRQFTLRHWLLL
Sequence of Sodium-dependent serotonin transporter (P31652 whole entry): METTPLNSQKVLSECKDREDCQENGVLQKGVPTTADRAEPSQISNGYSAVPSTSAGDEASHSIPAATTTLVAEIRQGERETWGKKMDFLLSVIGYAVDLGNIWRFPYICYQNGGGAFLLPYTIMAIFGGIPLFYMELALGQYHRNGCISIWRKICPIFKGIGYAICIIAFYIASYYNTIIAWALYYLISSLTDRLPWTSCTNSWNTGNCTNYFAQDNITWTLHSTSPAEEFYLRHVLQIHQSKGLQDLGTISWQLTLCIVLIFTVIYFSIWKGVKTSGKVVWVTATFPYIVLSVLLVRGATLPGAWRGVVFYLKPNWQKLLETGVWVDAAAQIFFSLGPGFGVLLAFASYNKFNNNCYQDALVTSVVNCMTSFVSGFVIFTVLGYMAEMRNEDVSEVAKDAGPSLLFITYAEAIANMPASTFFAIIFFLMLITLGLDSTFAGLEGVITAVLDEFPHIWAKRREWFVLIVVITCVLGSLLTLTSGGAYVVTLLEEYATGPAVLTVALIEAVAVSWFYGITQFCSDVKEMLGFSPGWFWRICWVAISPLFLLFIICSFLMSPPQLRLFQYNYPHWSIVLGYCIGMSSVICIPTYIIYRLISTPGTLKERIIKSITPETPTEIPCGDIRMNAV

Compound	Ki [1] [nM]	Ki [2] [nM]	Ratio Ki [3]	Ki [4] [nM]	Ratio Ki [5]
COC(=O)C1C(c2ccc(-c3cncc(OC)c3)cc2)CC2CCC1N2C (stereo not given)	587	1590	150	3.91	–
COC(=O)C1C2CCC(CC1c1ccc(-c3cncc(OC)c3)cc1)N2 (stereo not given)	332	739	212	1.56	–
COC(=O)C1C(c2ccc(-c3ccccn3)cc2)CC2CCC1N2C (stereo not given)	–	> 10000	0.27	–	–
COC(=O)C1C(c2ccc(-c3cnccn3)cc2)CC2CCC1N2C (stereo not given)	121	213	10	11.3	–
COC(=O)C1C(c2ccc(-c3cnc4ccccc4c3)cc2)CC2CCC1N2C (stereo not given)	–	> 30000	3	–	–
COC(=O)C1C(c2ccc(-c3ccncc3)cc2)CC2CCC1N2C (stereo not given)	1570	> 30000	–	> 1000	–
COC(=O)C1C(c2ccc(-c3cccnc3)cc2)CC2CCC1N2C (stereo not given)	26.1	1410	7	–	–
COC(=O)C1C2CCC(CC1c1ccc(-c3ccco3)cc1)N2 (stereo not given)	3.76	12.7	25	0.15	–
COC(=O)C1C(c2ccc(-c3ccoc3)cc2)CC2CCC1N2C (stereo not given)	14.2	127	40	0.35	–
COC(=O)C1C(c2ccc(-c3cncnc3)cc2)CC2CCC1N2C (stereo not given)	–	> 10000	110	–	–
COC(=O)C1C2CCC(CC1c1ccc(-c3nccs3)cc1)N2 (stereo not given)	69.6	213	13	5.15	–
COC(=O)C1C(c2ccc(-c3cc(F)cc(F)c3)cc2)CC2CCC1N2C (stereo not given)	31.7	109	77	0.41	265
COC(=O)C1C(c2ccc(-c3cccc(N(C)C)c3)cc2)CC2CCC1N2C (stereo not given)	545	> 30000	–	> 1000	–
COC(=O)C1C(c2ccc(-c3ccco3)cc2)CC2CCC1N2C (stereo not given)	–	1400	6	–	–
COC(=O)C1C(c2ccc(-c3nccs3)cc2)CC2CCC1N2C (stereo not given)	520	> 10000	311	1.67	–
COC(=O)C1C(c2ccc(-c3cccc(F)c3)cc2)CC2CCC1N2C (stereo not given)	25.2	249	50	0.5	498
